Measured values taken from patent US20110086759A1, “CHEMICAL COMPOUNDS” (SYNGENTA CROP PROTECTION, INC., priority 2007, published 2011).

Key:
Format in all cases: in vivo
[1] = test system: Amaranthus retoflexus (AMARE); assay: Pre-emergence biological efficacy, glasshouse pot test; details: Amaranthus retroflexus, 312 h; pre-emergence, rate 1,000 g/ha, evaluated after 13 days (100=total damage to plant; 0=no damage); read-out: Percentage damage caused to weed species, AMARE
How it was run: (§1)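 One day after sowing in standard soil, pots were sprayed with compound in acetone/water (50:50) with 0.5% Tween 20, at 1000 or 250 g/ha. Plants grew at 24/16° C day/night, 14 h light, 65% humidity. Damage was scored after 13 days (0 = none, 100 = total).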

[2] = test system: Solanum nigrum (SOLNI); assay: as above; details: 312 h, pre-emergence, rate 1,000 g/ha, evaluated after 13 days (100=total damage to plant; 0=no damage), read-out: Percentage damage caused to weed species, SOLNI
How it was run: as §1

[3] = test system: Echinochloa crus-galli (ECHCG); assay: as above; details: 312 h, pre-emergence, rate 1,000 g/ha, evaluated after 13 days (100=total damage to plant; 0=no damage), read-out: Percentage damage caused to weed species, ECHCG
How it was run: as §1

[4] = test system: Ipomea hederaceae (IPOHE); assay: as above; details: Ipomoea hederacea, 312 h; pre-emergence, rate 1,000 g/ha, evaluated after 13 days (100=total damage to plant; 0=no damage); read-out: Percentage damage caused to weed species, IPOHE
How it was run: as §1

[5] = test system: Alopecurus myosuroides (ALOMY); assay: as above; details: 312 h, pre-emergence, rate 1,000 g/ha, evaluated after 13 days (100=total damage to plant; 0=no damage), read-out: Percentage damage caused to weed species, ALOMY
How it was run: as §1

[6] = test system: Setaria faberi (SETFA); assay: as above; details: 312 h, pre-emergence, rate 1,000 g/ha, evaluated after 13 days (100=total damage to plant; 0=no damage), read-out: Percentage damage caused to weed species, SETFA
How it was run: as §1

[7] = test system: Amaranthus retoflexus (AMARE); assay: Post-emergence biological efficacy, glasshouse pot test; details: Amaranthus retroflexus, 312 h; Rate 1,000 g/ha; post-emergence spray; evaluated after 13 days (100=total damage to plant; 0=no damage to plant); read-out: Percentage damage caused to weed species, post-emergence, AMARE
How it was run: (§2)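 Pot-grown weeds were sprayed 8 days after sowing with test compound in acetone/water (50:50) with 0.5% Tween 20 at 1000 or 250 g/ha. Glasshouse at 24/16° C day/night, 14 h light, 65% humidity. Damage scored 0-100 (100 = total damage) after 13 days.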

[8] = test system: Solanum nigrum (SOLNI); assay: as above; details: 312 h, Rate 1,000 g/ha, post-emergence spray, evaluated after 13 days (100=total damage to plant; 0=no damage to plant), read-out: Percentage damage caused to weed species, post-emergence, SOLNI
How it was run: as §2

[9] = test system: Echinochloa crus-galli (ECHCG); assay: as above; details: 312 h, Rate 1,000 g/ha, post-emergence spray, evaluated after 13 days (100=total damage to plant; 0=no damage to plant), read-out: Percentage damage caused to weed species, post-emergence, ECHCG
How it was run: as §2

[10] = test system: Ipomea hederaceae (IPOHE); assay: as above; details: Ipomoea hederacea, 312 h; Rate 1,000 g/ha; post-emergence spray; evaluated after 13 days (100=total damage to plant; 0=no damage to plant); read-out: Percentage damage caused to weed species, post-emergence, IPOHE
How it was run: as §2

[11] = test system: Alopecurus myosuroides (ALOMY); assay: as above; details: 312 h, Rate 1,000 g/ha, post-emergence spray, evaluated after 13 days (100=total damage to plant; 0=no damage to plant), read-out: Percentage damage caused to weed species, post-emergence, ALOMY
How it was run: as §2

[12] = test system: Setaria faberi (SETFA); assay: as above; details: 312 h, Rate 1,000 g/ha, post-emergence spray, evaluated after 13 days (100=total damage to plant; 0=no damage to plant), read-out: Percentage damage caused to weed species, post-emergence, SETFA
How it was run: as §2

Structure (SMILES)	pest or weed control at 1000 g/ha [1] [%]	pest or weed control at 1000 g/ha [2] [%]	pest or weed control at 1000 g/ha [3] [%]	pest or weed control at 1000 g/ha [4] [%]	pest or weed control at 1000 g/ha [5] [%]	pest or weed control at 1000 g/ha [6] [%]	pest or weed control at 1000 g/ha [7] [%]	pest or weed control at 1000 g/ha [8] [%]	pest or weed control at 1000 g/ha [9] [%]	pest or weed control at 1000 g/ha [10] [%]	pest or weed control at 1000 g/ha [11] [%]	pest or weed control at 1000 g/ha [12] [%]
COC(=O)c1nc(-c2ccc(OC)c(OC)c2)nc(NCc2ccco2)c1Cl [Compound 260-48, 5-Chloro-2-(3,4-dimethoxyphenyl)-4-(furan-2-ylmethyl-amino)-6-methoxy-carbonylpyrimidine]	0	0	0	0	0	0	20	30	0	0	0	0
COC(=O)c1nc(-c2ccc(Cl)c(N(C)C)c2F)nc(NCc2ccco2)c1Cl [Compound 261-48, 5-Chloro-2-(4-chloro-3-dimethylamino-2-fluorophenyl)-4-(furan-2-yl-methyl-amino)-6-methoxy-carbonylpyrimidine]	100	40	90	30	50	90	100	80	70	60	50	90
COC(=O)c1nc(-c2ccc(Cl)s2)nc(NC2CC2)c1Cl [Compound 262-30, 5-Chloro-2-(5-chloro-thiophen-2-yl)-4-cyclopropylamino-6-methoxycarbonyl-pyrimidine]	0	0	0	0	0	0	80	90	10	50	0	10
COC(=O)c1nc(-c2ccc(Cl)s2)nc(NCc2ccco2)c1Cl [Compound 262-48, 5-Chloro-2-(5-chlorothiophen-2-yl)-4-(furan-2-yl-methylamino)-6-methoxycarbonyl-pyrimidine]	80	20	0	0	0	0	100	80	20	60	20	0
